These results are taken from BindingDB's records for doi:10.1016/S0002-8703(03)00398-3 (University of Maryland Hospital, 2003).

The target in the test is Prostaglandin G/H synthase 1 (Homo sapiens, UniProt P23219).
Sequence of Prostaglandin G/H synthase 1 (P23219 whole entry): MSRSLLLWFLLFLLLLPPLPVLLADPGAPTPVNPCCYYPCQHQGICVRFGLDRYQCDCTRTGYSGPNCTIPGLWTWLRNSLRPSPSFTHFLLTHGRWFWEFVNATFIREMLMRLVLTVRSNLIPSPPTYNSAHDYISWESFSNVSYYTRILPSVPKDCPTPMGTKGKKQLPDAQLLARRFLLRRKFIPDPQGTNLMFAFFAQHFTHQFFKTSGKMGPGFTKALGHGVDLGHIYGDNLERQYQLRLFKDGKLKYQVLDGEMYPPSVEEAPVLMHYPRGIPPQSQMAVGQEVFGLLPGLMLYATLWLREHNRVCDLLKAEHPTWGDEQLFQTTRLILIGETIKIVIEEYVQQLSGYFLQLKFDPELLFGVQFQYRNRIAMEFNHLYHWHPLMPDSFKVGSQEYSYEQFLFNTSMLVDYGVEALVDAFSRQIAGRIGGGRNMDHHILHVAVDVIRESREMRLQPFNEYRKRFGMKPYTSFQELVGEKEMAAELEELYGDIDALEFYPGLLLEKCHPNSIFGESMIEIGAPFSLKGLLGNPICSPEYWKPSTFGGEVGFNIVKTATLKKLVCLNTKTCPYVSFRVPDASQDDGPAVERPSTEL

In the case of `Cc1ccc(-c2ncc(Cl)cc2-c2ccc(S(C)(=O)=O)cc2)cn1`, the Ki – broadly, a measure of affinity in units of concentration, obtained from inhibition or displacement – was more than 10 µM.
